Reference: patent US20060079566A1, “PDK-1/Akt signaling inhibitors” (priority 2003, published 2006)

How the values were obtained:
DU-145 = assay: NCI DTP screen (SRB), Prostate Cancer; assay type: cell-based; settings: Homo sapiens
Procedure: (§1) Screening of compounds 70 and 71 against several cancer cell lines The human tumor cell lines of the cancer screening panel are grown in RPMI 1640 medium containing 5% fetal bovine serum and 2 mM L-glutamine. For a typical screening experiment, cells are inoculated into 96 well microtiter plates in 100 μL at plating densities ranging from 5,000 to 40,000 cells/well depending on the doubling time of individual cell lines. After cell inoculation, the microtiter plates are incubated at 37° C., 5% CO2, 95% air and 100% relative humidity for 24 h prior to addition of experimental drugs.
(§2) After 24 h, two plates of each cell line are fixed in situ with TCA, to represent a measurement of the cell population for each cell line at the time of drug addition (Tz). Experimental drugs are solubilized in dimethyl sulfoxide at 400-fold the desired final maximum test concentration and stored frozen prior to use. At the time of drug addition, an aliquot of frozen concentrate is thawed and diluted to twice the desired final maximum test concentration with complete medium containing 50 μg/ml gentamicin. Additional four, 10-fold or ½ log serial dilutions are made to provide a total of five drug concentrations plus control. Aliquots of 100 μl of these different drug dilutions are added to the appropriate microtiter wells already containing 100 μl of medium, resulting in the required final drug concentrations.
(§3) Following drug addition, the plates are incubated for an additional 48 h at 37° C., 5% CO2, 95% air, and 100% relative humidity. For adherent cells, the assay is terminated by the addition of cold TCA. Cells are fixed in situ by the gentle addition of 50 μl of cold 50% (w/v) TCA (final concentration, 10% TCA) and incubated for 60 minutes at 4° C. […] Bound stain is subsequently solubilized with 10 mM trizma base, and the absorbance is read on an automated plate reader at a wavelength of 515 nm. […] Using the seven absorbance measurements [time zero, (Tz), control growth, (C), and test growth in the presence of drug at the five concentration levels (Ti)], the percentage growth is calculated at each of the drug concentrations levels. Percentage growth inhibition is calculated as: [(Ti−Tz)/(C−Tz)]×100 for concentrations for which Ti>/=Tz [(Ti−Tz)/Tz]×100 for concentrations for which Ti<Tz
(§4) Three dose response parameters are calculated for each experimental agent. […] The drug concentration resulting in total growth inhibition (TGI) is calculated from Ti=Tz. […] Values are calculated for each of these three parameters if the level of activity is reached; however, if the effect is not reached or is exceeded, the value for that parameter is expressed as greater or less than the maximum or minimum concentration tested.

PC-3 = assay: NCI DTP screen (SRB), Prostate Cancer; assay type: cell-based; settings: Homo sapiens
Procedure: as §1, §2, §3, §4

MDA-MB-435 = assay: NCI DTP screen (SRB), Breast Cancer; assay type: cell-based; settings: Homo sapiens
Procedure: as §1, §2
(§5) Following drug addition, the plates are incubated for an additional 48 h at 37° C., 5% CO2, 95% air, and 100% relative humidity. For adherent cells, the assay is terminated by the addition of cold TCA. Cells are fixed in situ by the gentle addition of 50 μl of cold 50% (w/v) TCA (final concentration, 10% TCA) and incubated for 60 minutes at 4° C. The supernatant is discarded, and the plates are washed five times with tap water and air dried. Sulforhodamine B (SRB) solution (100 μl) at 0.4% (w/v) in 1% acetic acid is added to each well, and plates are incubated for 10 minutes at room temperature. After staining, unbound dye is removed by washing five times with 1% acetic acid and the plates are air dried. Bound stain is subsequently solubilized with 10 mM trizma base, and the absorbance is read on an automated plate reader at a wavelength of 515 nm. For suspension cells, the methodology is the same except that the assay is terminated by fixing settled cells at the bottom of the wells by gently adding 50 μl of 80% TCA (final concentration, 16% TCA). Using the seven absorbance measurements [time zero, (Tz), control growth, (C), and test growth in the presence of drug at the five concentration levels (Ti)], the percentage growth is calculated at each of the drug concentrations levels. Percentage growth inhibition is calculated as: [(Ti−Tz)/(C−Tz)]×100 for concentrations for which Ti>/=Tz [(Ti−Tz)/Tz]×100 for concentrations for which Ti<Tz
as §4

T-47D = assay: NCI DTP screen (SRB), Breast Cancer; assay type: cell-based
Procedure: as §1, §2, §5, §4

HS 57BT = assay: NCI DTP screen (SRB), Breast Cancer; assay type: cell-based
Procedure: as §1, §2, §5, §4

BT-549 = assay: NCI DTP screen (SRB), Breast Cancer; assay type: cell-based; settings: Homo sapiens
Procedure: After 24 h, two plates of each cell line are fixed in situ with TCA, to represent a measurement of the cell population for each cell line at the time of drug addition (Tz). Experimental drugs are solubilized in dimethyl sulfoxide at 400-fold the desired final maximum test concentration and stored frozen prior to use. […]
Following drug addition, the plates are incubated for an additional 48 h at 37° C., 5% CO2, 95% air, and 100% relative humidity. […] Bound stain is subsequently solubilized with 10 mM trizma base, and the absorbance is read on an automated plate reader at a wavelength of 515 nm. […] Using the seven absorbance measurements [time zero, (Tz), control growth, (C), and test growth in the presence of drug at the five concentration levels (Ti)], the percentage growth is calculated at each of the drug concentrations levels. Percentage growth inhibition is calculated as: [(Ti−Tz)/(C−Tz)]×100 for concentrations for which Ti>/=Tz [(Ti−Tz)/Tz]×100 for concentrations for which Ti<Tz […]

SF-295 = assay: NCI DTP screen (SRB), CNS Cancer; assay type: cell-based; settings: Homo sapiens
Procedure: as §1, §2, §5, §4

SF-268 = assay: NCI DTP screen (SRB), CNS Cancer; assay type: cell-based
Procedure: as §1, §2, §5, §4

SNB-19 = assay: NCI DTP screen (SRB), CNS Cancer; assay type: cell-based; settings: Homo sapiens
Procedure: as §1, §2, §5, §4

UO-31 = assay: NCI DTP screen (SRB), Renal Cancer; assay type: cell-based, human; settings: Homo sapiens, UO-31
Procedure: as §1, §2, §5, §4

RXP 393 = assay: NCI DTP screen (SRB), Renal Cancer; assay type: cell-based, human
Procedure: as §1, §2, §5, §4

U251 = assay: NCI DTP screen (SRB), CNS Cancer; assay type: cell-based, human; settings: Homo sapiens, U-251
Procedure: as §1, with “drugs. […]” for “drugs.”
as §3, with “humidity.” for “humidity. For adherent cells, the assay is terminated by the addition of cold TCA. Cells are fixed in situ by the gentle addition of 50 μl of cold 50% (w/v) TCA (final concentration, 10% TCA) and incubated for 60 minutes at 4° C.”
Three dose response parameters are calculated for each experimental agent. […]

LOX IMVI = assay: NCI DTP screen (SRB), Melanoma; assay type: cell-based; settings: Homo sapiens, LOX IMVI
Procedure: as §1, §2, §5, §4

M14 = assay: NCI DTP screen (SRB), Melanoma; assay type: cell-based; settings: Homo sapiens
Procedure: as §1, §2, §5, §4

SK-MEL-2 = assay: NCI DTP screen (SRB), Melanoma; assay type: cell-based
Procedure: as §1, §2, §5, §4

SK-MEL-28 = assay: NCI DTP screen (SRB), Melanoma; assay type: cell-based; settings: Homo sapiens
Procedure: as §1, §2, §5, §4

SK-MEL-5 = assay: NCI DTP screen (SRB), Melanoma; assay type: cell-based; settings: Homo sapiens
Procedure: as §1, §2, §5, §4

K-562 = assay: NCI DTP screen (SRB), Leukemia; assay type: cell-based; settings: Homo sapiens
Procedure: as §1, §2, §5, §4

SR = assay: NCI DTP screen (SRB), Leukemia; assay type: cell-based
Procedure: as §1, §2, §5, §4

RPMI-8226 = assay: NCI DTP screen (SRB), Leukemia; assay type: cell-based; settings: Homo sapiens
Procedure: as §1, §2, §5, §4

MOLT-4 = assay: NCI DTP screen (SRB), Leukemia; assay type: cell-based; settings: Homo sapiens
Procedure: as §1, §2, §5, §4

immunoprecipitated Akt = assay: Direct inhibition of immunoprecipitated Akt kinase activity; assay type: biochemical, human

NCC(=O)Nc1ccc(-n2nc(C(F)(F)F)cc2-c2ccc3c(ccc4ccccc43)c2)cc1 [Compound 70, 2-Amino-N-{4-[5-(2-phenanthrenyl)-3-(trifluoromethyl)-1H-pyrazol-1-yl]-phenyl}-acetamide]
GI50 (DU-145; DU-145): 1730 nM
CC50 (DU-145; DU-145, read-out: LC50): 6950 nM
GI50 (PC-3; PC-3): 705 nM
CC50 (PC-3; PC-3, read-out: LC50): 6020 nM
GI50 (MDA-MB-435): 1350 nM
GI50 (T-47D; Homo sapiens, T47D): 1820 nM
Percent Growth (T-47D; Log10 Concentration −4.0): −64%
Percent Growth (HS 57BT; HS 57BT, Log10 Concentration −5.0): −34%
Percent Growth (HS 57BT; HS 57BT, Log10 Concentration −6.0): 88%
CC50 (HS 57BT; Homo sapiens, read-out: LC50): > 100000 nM
GI50 (HS 57BT; Homo sapiens, HS 57BT): 2050 nM
GI50 (BT-549; BT-549): 1250 nM
CC50 (BT-549; BT-549, read-out: LC50): 6980 nM
GI50 (SF-295; SF-295): 1280 nM
CC50 (SF-295; SF-295, read-out: LC50): > 100000 nM
GI50 (SF-268; Homo sapiens, SF-268): 1110 nM
CC50 (SF-268; Homo sapiens, SF-268, read-out: LC50): > 100000 nM
Percent Growth (SF-268; SF-268, Log10 Concentration −4.0): −26%
GI50 (SNB-19): 1180 nM
GI50 (UO-31): 1370 nM
GI50 (RXP 393; Homo sapiens): 1140 nM
Percent Growth (RXP 393; Log10 Concentration −4.0): 10%
Mean Optical Densities (RXP 393; Log10 Concentration −7.0): 0.700
Mean Optical Densities (RXP 393; Log10 Concentration −8.0): 0.766
GI50 (U251): 775 nM
GI50 (LOX IMVI): 836 nM
GI50 (M14; M14): 2100 nM
CC50 (M14; M14, read-out: LC50): > 100000 nM
GI50 (SK-MEL-2; Homo sapiens, SK-MEL-2): 2330 nM
CC50 (SK-MEL-2; Homo sapiens, SK-MEL-2, read-out: LC50): > 100000 nM
Percent Growth (SK-MEL-2; SK-MEL-2, Log10 Concentration −5.0): −67%
GI50 (SK-MEL-28; SK-MEL-28): 1220 nM
CC50 (SK-MEL-28; SK-MEL-28, read-out: LC50): 5690 nM
GI50 (SK-MEL-5): 1360 nM
CC50 (K-562; K562, read-out: LC50): > 100000 nM
GI50 (K-562; K562, K-562): 257 nM
GI50 (SR; Homo sapiens): 711 nM
CC50 (SR; Homo sapiens, read-out: LC50): > 100000 nM
Mean Optical Densities (SR; Log10 Concentration −8.0): 0.816
GI50 (RPMI-8226): 537 nM
GI50 (MOLT-4; MOLT-4): 636 nM
CC50 (MOLT-4; MOLT-4, read-out: LC50): > 100000 nM
direct inhibitory effect on immunoprecipitated Akt kinase activity (immunoprecipitated Akt): no appreciable direct inhibition
